We go through ten molecules from PMC6053381, “Novel 2-phenyloxypyrimidine derivative induces apoptosis and autophagy via inhibiting PI3K pathway and activating MAPK/ERK signaling in hepatocellular carcinoma cells” (Scientific Reports, 2018).

Some results are limits rather than exact numbers.

Broadly, the IC50 is the concentration needed to halve the response being measured.

The subject of one assay is BEL7404. Put plainly: CellTiter-Glo luminescent cell viability assay. The assay is classed as cell-based. The note with it: 120 h incubation, read-out: Anti-proliferative activity IC50 BEL7404. An excerpt:
(§1) The in vitro antitumor activity of all compounds was screened against six HCC cell lines by CellTiter-Glo luminescent cell viability assay as described earlier. […] After a comprehensive assessment of PDGFR inhibition, cellular activity against HCC cells as well as potential druggability, E5 was chosen to investigate its kinase profiling, antitumor activity and molecular mechanism in the following study. […]
(§2) authenticated by using short tandem repeat (STR) matching analysis. No mycoplasma contamination was detected.
(§3) CellTiter-Glo luminescent cell viability assay
(§4) For experiments hepatocellular carcinoma cells were seeded at 4000 cells per well in 96-well plates. After overnight incubation, solution of compounds in DMSO at various concentrations were added to the cells and further incubated for 120 h. Cell viability was measured with the CellTiter-Glo Luminescent Cell Viability Assay (Promega) according to the manufacturer’s instructions. Luminescence was measured using an EnVision Multilabel Plate Reader (Perkin-Elmer). The cytotoxicity of the compounds was expressed as the percent age of luminescence relative to that of untreated cells . The concentration of compound producing 50% of cell proliferation (IC50) was calculated by nonlinear regression analysis of the response-concentration (log) curve, using the Graph-Pad Prism program package (Graph Pad Software; San Diego, CA). Results are expressed as the means of two […] experiments
Background: Cellular ATP, detected with luciferase, serves as a proxy for viable cell number.

A further assay deals with Hep3B. Put plainly: CellTiter-Glo luminescent cell viability assay. The note with it: 120 h incubation, read-out: Anti-proliferative activity IC50 Hep3B. The assay is classed as cell-based.
Source text: as §1, §2, §3, §4

Another assay relates to MHCC97-L. As to the kind of experiment: CellTiter-Glo luminescent cell viability assay. The note with it: 120 h incubation, read-out: Anti-proliferative activity IC50 MHCC97-L. The assay is classed as cell-based.
Source text: as §1, §2, §3, §4

Another assay deals with SMMC-7721. Put plainly: CellTiter-Glo luminescent cell viability assay. The note with it: 120 h incubation, read-out: Anti-proliferative activity IC50 SMMC-7721. The assay is classed as cell-based.
Source text: as §1, §2, §3, §4

The next assay deals with QGY-7703. Put plainly: CellTiter-Glo luminescent cell viability assay. The settings on record: 120 h incubation, read-out: Anti-proliferative activity IC50 QGY-7703. The assay is classed as cell-based.
Source text: as §1, §2, §3, §4

Another assay deals with SNU368. Put plainly: CellTiter-Glo luminescent cell viability assay. The settings on record: 120 h incubation, read-out: Anti-proliferative activity IC50 SNU368. The assay is classed as cell-based.
Source text: as §1, §2, §3, §4

The target of the next assay is PDGFRα (Homo sapiens, UniProt P16234). As to the kind of experiment: PDGFR kinase assay, Caliper microfluidic mobility shift. The assay is classed as biochemical. The note with it: compound at 1 µM; averages of two separate experiments. On the procedure:
(§5) In vitro inhibitory activities of all compounds at 1 μM against PDGFRα and PDGFRβ were evaluated using Caliper microfluidic mobility shift technology. […] At the same concentration, only E5 inhibited greater than 50% of PDGFRβ activity (Fig. 2B).
(§6) PDGFR kinase activity was measured using Caliper microfluidic mobility shift technology. Briefly, 2 μL compound solution (25 μM) in 25% DMSO per well were added into the 384 well microtiter plates. Then, 10 μL per well of enzyme solution (100 mM HEPES, 10 mM MgCl2, Brij35 (30%) 100 μL, 1 mM DTT, 20 ng enzyme) was added. After a brief centrifugation at 1,000 rpm, the kinase reactions were started by addition of 38 μL per well of peptide/ATP-solution (40 μM ATP, 6.5 μM peptide 5′-FAM-KKKKEEIYFFF-NH2, Tris-HCl buffer, pH 7.0) incubated at 30 °C for 60 min and stopped by the addition of 20 μL 35 mM EDTA per well. The electrophoretic separation of the phosphorylated and non-phosphorylated peptides was then carried out on LabChip EZ Reader II (Caliper Life Sciences). All other kinase reactions were carried out as previously reported using the Kinase-Glo Plus or ADP-Glo assay. Kinase inhibition rates were calculated per manufacturer’s instructions.

Another assay has as its target PDGFRβ (Homo sapiens, UniProt P09619). The assay is described as above. The assay is classed as biochemical. The settings on record: compound at 1 µM; averages of two separate experiments. The method, then: as §5, §6

Sequence of PDGFRβ (P09619 33-1106): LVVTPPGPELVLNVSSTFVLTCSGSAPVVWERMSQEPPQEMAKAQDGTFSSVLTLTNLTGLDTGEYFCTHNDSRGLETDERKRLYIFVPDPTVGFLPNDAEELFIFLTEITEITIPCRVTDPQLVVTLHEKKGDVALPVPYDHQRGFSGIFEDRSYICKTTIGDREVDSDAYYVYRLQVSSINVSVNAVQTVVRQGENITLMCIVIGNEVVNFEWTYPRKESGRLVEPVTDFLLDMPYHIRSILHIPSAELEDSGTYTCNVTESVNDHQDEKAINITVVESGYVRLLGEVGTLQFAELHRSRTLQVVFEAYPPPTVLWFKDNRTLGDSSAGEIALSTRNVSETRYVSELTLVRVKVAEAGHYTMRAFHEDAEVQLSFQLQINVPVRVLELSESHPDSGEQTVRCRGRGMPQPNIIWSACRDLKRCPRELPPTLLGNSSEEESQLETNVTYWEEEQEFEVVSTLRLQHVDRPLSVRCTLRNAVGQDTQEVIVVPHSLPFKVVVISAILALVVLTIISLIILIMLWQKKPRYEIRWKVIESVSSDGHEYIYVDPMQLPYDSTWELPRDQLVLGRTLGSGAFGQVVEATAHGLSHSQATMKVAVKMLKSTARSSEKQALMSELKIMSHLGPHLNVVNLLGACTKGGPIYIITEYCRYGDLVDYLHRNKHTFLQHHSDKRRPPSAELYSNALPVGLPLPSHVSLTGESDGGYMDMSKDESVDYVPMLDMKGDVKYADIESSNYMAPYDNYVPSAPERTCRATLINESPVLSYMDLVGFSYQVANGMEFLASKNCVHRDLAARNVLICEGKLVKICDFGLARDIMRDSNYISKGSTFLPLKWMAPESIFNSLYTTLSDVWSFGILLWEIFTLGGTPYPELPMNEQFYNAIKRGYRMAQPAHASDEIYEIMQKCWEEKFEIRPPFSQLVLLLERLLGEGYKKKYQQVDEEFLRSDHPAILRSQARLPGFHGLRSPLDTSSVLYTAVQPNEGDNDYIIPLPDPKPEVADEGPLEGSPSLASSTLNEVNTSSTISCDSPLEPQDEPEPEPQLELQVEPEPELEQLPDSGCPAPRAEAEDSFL
Sequence of PDGFRα (P16234 24-1089): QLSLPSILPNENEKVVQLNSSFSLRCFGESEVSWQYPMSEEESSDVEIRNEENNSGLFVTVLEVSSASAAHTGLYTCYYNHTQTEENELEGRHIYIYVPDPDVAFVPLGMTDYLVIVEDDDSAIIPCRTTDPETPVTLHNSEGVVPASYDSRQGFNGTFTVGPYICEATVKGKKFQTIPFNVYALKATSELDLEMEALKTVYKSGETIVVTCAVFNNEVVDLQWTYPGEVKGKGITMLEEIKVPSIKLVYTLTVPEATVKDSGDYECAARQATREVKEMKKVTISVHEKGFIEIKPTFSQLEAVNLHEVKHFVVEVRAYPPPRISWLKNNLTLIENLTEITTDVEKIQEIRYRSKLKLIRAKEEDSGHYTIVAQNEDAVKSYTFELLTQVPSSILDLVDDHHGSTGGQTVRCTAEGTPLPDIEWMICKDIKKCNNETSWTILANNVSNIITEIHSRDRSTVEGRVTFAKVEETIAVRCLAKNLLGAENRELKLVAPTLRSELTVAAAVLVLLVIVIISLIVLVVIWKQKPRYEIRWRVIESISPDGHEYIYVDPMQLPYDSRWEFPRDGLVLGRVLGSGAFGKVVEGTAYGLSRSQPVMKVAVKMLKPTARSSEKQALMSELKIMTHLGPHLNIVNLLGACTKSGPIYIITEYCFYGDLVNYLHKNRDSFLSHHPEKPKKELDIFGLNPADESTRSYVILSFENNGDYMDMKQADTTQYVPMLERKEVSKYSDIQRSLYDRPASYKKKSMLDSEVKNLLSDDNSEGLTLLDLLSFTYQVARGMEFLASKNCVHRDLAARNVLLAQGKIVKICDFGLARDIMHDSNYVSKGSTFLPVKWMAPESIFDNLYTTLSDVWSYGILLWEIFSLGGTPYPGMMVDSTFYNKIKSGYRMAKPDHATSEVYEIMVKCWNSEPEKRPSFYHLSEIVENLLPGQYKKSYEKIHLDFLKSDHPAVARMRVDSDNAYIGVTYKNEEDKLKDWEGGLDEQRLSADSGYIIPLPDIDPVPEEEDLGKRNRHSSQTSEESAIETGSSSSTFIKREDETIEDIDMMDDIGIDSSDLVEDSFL

Take `Cc1ccc(NC(=O)CO)cc1Oc1nccc(-c2cc3ccccc3o2)n1` [E8]: the half-inhibitory concentration (IC50) stood at 2.8 µM with BEL7404; 3.8 µM with Hep3B; 13.6 µM in the assay on MHCC97-L; 2.5 µM in the assay with SMMC-7721; 3.3 µM with QGY-7703; 6.3 µM with SNU368. On PDGFRα, the “Inhibition effect (%) PDGFRα” value is recorded as 26.16%. Further, the “Inhibition effect (%) PDGFRβ” value on PDGFRβ amounted to 14.62%.
As to `CCC(=O)Nc1ccc(C)c(Oc2nccc(-c3cccc4ccccc34)n2)c1` [C2], the half-inhibitory concentration (IC50) in the assay on BEL7404 was 48.2 µM; with Hep3B, 36.3 µM; in the assay with MHCC97-L, 111 µM; with SMMC-7721 it was 29.5 µM; with QGY-7703, 120 µM; in the assay on SNU368 it was 55.9 µM. The “Inhibition effect (%) PDGFRα” value on PDGFRα is reported as 33.78%. Also, the “Inhibition effect (%) PDGFRβ” value on PDGFRβ came out at 2.07%.
In the case of `Cc1ccc(NC(=O)c2ccc(Cl)cc2)cc1Oc1nccc(-c2ccco2)n1` [D6], the IC50 in the assay with BEL7404 was determined as 10.9 µM; in the assay on Hep3B, 7.3 µM; in the assay with MHCC97-L it was 24.6 µM; in the assay with SMMC-7721, 8.2 µM; in the assay on QGY-7703 it was 25.8 µM; in the assay with SNU368, 12.7 µM. Moreover, at PDGFRα, the “Inhibition effect (%) PDGFRα” value amounted to 33.02%. Further, the “Inhibition effect (%) PDGFRβ” value on PDGFRβ was found to be 37.47%.
In the case of `Cc1ccc(NC(=O)Cc2ccccc2)cc1Oc1nccc(-c2ccccc2)n1` [B2], the IC50 with BEL7404 worked out at 14.4 µM; with Hep3B it was 13 µM; in the assay with MHCC97-L it was 16.9 µM; with SMMC-7721, 11.7 µM; in the assay with QGY-7703, 20.6 µM; in the assay on SNU368, 24.8 µM. At PDGFRα, the “Inhibition effect (%) PDGFRα” value turned out to be 21.09%. The “Inhibition effect (%) PDGFRβ” value at PDGFRβ amounted to 17.63%.
`Cc1ccc(NC(=O)c2cccs2)cc1Oc1nccc(-c2cccc3ccccc23)n1` [C5]: the IC50 came to 20.8 µM with BEL7404; 17 µM with Hep3B; 28 µM with MHCC97-L; 16.8 µM with SMMC-7721; 35.2 µM in the assay with QGY-7703; 28.4 µM in the assay on SNU368. Also, on PDGFRα, the “Inhibition effect (%) PDGFRα” value is on record as 16.27%. In addition, the “Inhibition effect (%) PDGFRβ” value at PDGFRβ turned out to be 5.08%.
As to `Cc1ccc(NC(=O)c2cccc([N+](=O)[O-])c2)cc1Oc1nccc(-c2ccccc2)n1` [B9], the IC50 with BEL7404 was 12.9 µM; with Hep3B, 83.2 µM; in the assay with MHCC97-L, greater than 200 µM; in the assay on SMMC-7721 it was 13.8 µM; in the assay with QGY-7703, 19.2 µM; in the assay on SNU368, 16.8 µM. The “Inhibition effect (%) PDGFRα” value on PDGFRα is recorded as 21.34%. Further, the “Inhibition effect (%) PDGFRβ” value at PDGFRβ is listed as 19.14%.
As to `Cc1ccc(NC(=O)c2cccc(Cl)c2)cc1Oc1nccc(-c2ccco2)n1` [D5], the half-inhibitory concentration (IC50) in the assay on BEL7404 amounted to 12.4 µM; in the assay with Hep3B it was 11.2 µM; in the assay with MHCC97-L it was 14.7 µM; in the assay on SMMC-7721 it was 12.4 µM; with QGY-7703, 22.5 µM; in the assay on SNU368, 24 µM. For the same molecule, the “Inhibition effect (%) PDGFRα” value on PDGFRα is on record as 51.79%. Besides, the “Inhibition effect (%) PDGFRβ” value on PDGFRβ is on record as 43.49%.
As to `Cc1ccc(NC(=O)c2ccco2)cc1Oc1nccc(-c2cccc3ccccc23)n1` [C3], the IC50 in the assay on BEL7404 stood at 39.7 µM; with Hep3B it was 33.5 µM; in the assay on MHCC97-L, 91 µM; in the assay with SMMC-7721 it was 27.2 µM; in the assay on QGY-7703, 70.7 µM; in the assay with SNU368, 37.9 µM. In addition, on PDGFRα, the “Inhibition effect (%) PDGFRα” value worked out at 46.46%. In addition, at PDGFRβ, the “Inhibition effect (%) PDGFRβ” value was determined as 11.61%.
With `Cc1ccc(NC(=O)c2ccc(F)cc2)cc1Oc1nccc(-c2ccccc2)n1` [B10], the IC50 with BEL7404 is 8.1 µM; in the assay with Hep3B, 5.8 µM; in the assay with MHCC97-L, 6.3 µM; in the assay on SMMC-7721, 3.9 µM; in the assay with QGY-7703, 10.9 µM; in the assay with SNU368, 12.6 µM. Further, the “Inhibition effect (%) PDGFRα” value at PDGFRα was 19.57%. For the same molecule, the “Inhibition effect (%) PDGFRβ” value at PDGFRβ is reported as 15.63%.
Take `CCC(=O)Nc1ccc(C)c(Oc2nccc(-c3cc4ccccc4o3)n2)c1` [E2]: the IC50 was 8.2 µM in the assay on BEL7404; 74.6 µM in the assay on Hep3B; 5.5 µM with MHCC97-L; 0.2 µM with SMMC-7721; 0.4 µM in the assay on QGY-7703; 13.2 µM with SNU368. Further, the “Inhibition effect (%) PDGFRα” value on PDGFRα is on record as 19.06%. At PDGFRβ, the “Inhibition effect (%) PDGFRβ” value amounted to 10.10%.
